Test results: PubChem BioAssay (NCI)
Values joined by “and” are separate entries in the source; they are usually repeats but may differ in a detail not shown here. Equal values may be shown once.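 Cells were grown in 96-well plates and exposed to each compound for 48 hours at five concentrations; endpoints were interpolated linearly between bracketing concentrations, or set to the highest concentration if not reached. GI50 = concentration required for 50% inhibition of growth. TGI marks complete inhibition of growth.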

Tests used:
Assay in all cases: inhibition of tumour cell growth, NCI panel, 48 h
OVCAR-3 ovarian = system: OVCAR-3 ovarian
EKVX NSCLC = system: EKVX NSCLC
NCI-H460 lung = system: NCI-H460 lung
T-47D breast = system: T-47D breast
MDA-N = system: MDA-N
LOX IMVI melanoma = system: LOX IMVI melanoma
MALME-3M melanoma = system: MALME-3M melanoma
RXF 393 renal = system: RXF 393 renal
A549 NSCLC = system: A549 NSCLC
OVCAR-8 ovarian = system: OVCAR-8 ovarian
SF-268 CNS = system: SF-268 CNS
COLO 205 colon = system: COLO 205 colon
NCI-H226 lung = system: NCI-H226 lung
BT-549 breast = system: BT-549 breast
UO-31 renal = system: UO-31 renal
MOLT-4 leukemia = system: MOLT-4 leukemia
U251 CNS = system: U251 CNS
OVCAR-5 ovarian = system: OVCAR-5 ovarian
MCF7 breast = system: MCF7 breast
K-562 leukemia = system: K-562 leukemia
NCI-H23 lung = system: NCI-H23 lung
HOP-92 NSCLC = system: HOP-92 NSCLC
RPMI-8226 leukemia = system: RPMI-8226 leukemia
MDA-MB-435 = system: MDA-MB-435
CAKI-1 renal = system: CAKI-1 renal
HCT-15 colon = system: HCT-15 colon
SW-620 colon = system: SW-620 colon
SK-MEL-2 melanoma = system: SK-MEL-2 melanoma
M14 melanoma = system: M14 melanoma
HT29 colon = system: HT29 colon
NCI-H522 lung = system: NCI-H522 lung
SF-539 CNS = system: SF-539 CNS
HS 578T breast = system: HS 578T breast
DU-145 prostate = system: DU-145 prostate
IGROV1 ovarian = system: IGROV1 ovarian
SK-OV-3 ovarian = system: SK-OV-3 ovarian
SNB-19 CNS = system: SNB-19 CNS
A498 renal = system: A498 renal
HCC-2998 colon = system: HCC-2998 colon
NCI/ADR-RES ovarian = system: NCI/ADR-RES ovarian
PC-3 prostate = system: PC-3 prostate
KM12 colon = system: KM12 colon
786-0 renal = system: 786-0 renal
SF-295 CNS = system: SF-295 CNS
SK-MEL-28 melanoma = system: SK-MEL-28 melanoma
MDA-MB-231 breast = system: MDA-MB-231 breast
SN12C renal = system: SN12C renal
UACC-257 melanoma = system: UACC-257 melanoma
HOP-62 NSCLC = system: HOP-62 NSCLC
OVCAR-4 ovarian = system: OVCAR-4 ovarian
SNB-75 CNS = system: SNB-75 CNS
SK-MEL-5 melanoma = system: SK-MEL-5 melanoma
ACHN renal = system: ACHN renal
TK-10 renal = system: TK-10 renal
UACC-62 melanoma = system: UACC-62 melanoma
HCT-116 colon = system: HCT-116 colon
HL-60(TB) leukemia = system: HL-60(TB) leukemia
SR leukemia = system: SR leukemia
CCRF-CEM leukemia = system: CCRF-CEM leukemia

## C=C(C)C1CC2=C(O1)C(=O)c1cccc(O)c1C2=O (centres undefined)
OVCAR-3 ovarian
  TGI: 0.924 µM
EKVX NSCLC
  TGI: 2.52 µM
NCI-H460 lung
  TGI: 3.75 µM
T-47D breast
  TGI: 3.04 µM
MDA-N
  TGI: 0.132 µM
LOX IMVI melanoma
  TGI: > 22.8 µM
MALME-3M melanoma
  TGI: 2.31 µM
RXF 393 renal
  TGI: 2.54 µM
A549 NSCLC
  TGI: 4.9 µM
OVCAR-8 ovarian
  TGI: 1.81 µM
SF-268 CNS
  TGI: 1.47 µM
COLO 205 colon
  TGI: 3.25 µM
NCI-H226 lung
  TGI: 3.46 µM
BT-549 breast
  TGI: 1.63 µM
UO-31 renal
  TGI: 2.84 µM
MOLT-4 leukemia
  TGI: 0.422 µM
U251 CNS
  TGI: 3.01 µM
OVCAR-5 ovarian
  TGI: 3.01 µM
MCF7 breast
  TGI: 1.96 µM
K-562 leukemia
  TGI: 0.689 µM
NCI-H23 lung
  TGI: 0.935 µM
HOP-92 NSCLC
  TGI: 11.5 µM
RPMI-8226 leukemia
  TGI: 1.22 µM
MDA-MB-435
  TGI: 0.271 µM
CAKI-1 renal
  TGI: 2.08 µM
HCT-15 colon
  TGI: 4.36 µM
SW-620 colon
  TGI: 2.96 µM
SK-MEL-2 melanoma
  TGI: 2.68 µM
M14 melanoma
  TGI: 2.43 µM
HT29 colon
  TGI: 3.13 µM
NCI-H522 lung
  TGI: 1.73 µM
SF-539 CNS
  TGI: 1.89 µM
HS 578T breast
  TGI: 5.34 µM
DU-145 prostate
  TGI: 3.15 µM
IGROV1 ovarian
  TGI: 0.617 µM
SK-OV-3 ovarian
  TGI: 2.86 µM
SNB-19 CNS
  TGI: 3.11 µM
A498 renal
  TGI: 10.2 µM
HCC-2998 colon
  TGI: 3.97 µM
NCI/ADR-RES ovarian
  TGI: 2.78 µM
PC-3 prostate
  TGI: 3.67 µM
KM12 colon
  TGI: 3.27 µM
786-0 renal
  TGI: > 100 µM
SF-295 CNS
  TGI: 2.73 µM
SK-MEL-28 melanoma
  TGI: 3.33 µM
MDA-MB-231 breast
  TGI: 3.64 µM
SN12C renal
  TGI: 2.44 µM
UACC-257 melanoma
  TGI: 1.01 µM
HOP-62 NSCLC
  TGI: 2.94 µM
OVCAR-4 ovarian
  TGI: 0.926 µM
SNB-75 CNS
  TGI: 3.87 µM
SK-MEL-5 melanoma
  TGI: 0.304 µM
ACHN renal
  TGI: 3.23 µM
TK-10 renal
  TGI: 5.37 µM
UACC-62 melanoma
  TGI: 2.18 µM

## CCCCCCC(O)C(O)CCC(O)C1CCC(CCCCC(O)CC2=CC(C)OC2=O)O1 (centres undefined)
OVCAR-3 ovarian
  GI50: 13.7 µM
  TGI: 5.22 µM and 28.7 µM
EKVX NSCLC
  GI50: 0.291 µM
  TGI: 12 µM
HCT-116 colon
  GI50: 1.28 µM
  TGI: 25.3 µM
NCI-H460 lung
  GI50: 10.5 µM
  TGI: 26.9 µM
T-47D breast
  GI50: 4.99 µM
  TGI: 40.7 µM
MDA-N
  GI50: 12.3 µM
  TGI: 29.1 µM
LOX IMVI melanoma
  GI50: 4.48 µM
  TGI: 5.02 µM and 27.7 µM
MALME-3M melanoma
  TGI: 33.8 µM
RXF 393 renal
  GI50: 22.9 µM
  TGI: 39.7 µM
A549 NSCLC
  GI50: 10.6 µM
  TGI: 35.3 µM
OVCAR-8 ovarian
  TGI: 6.65 µM
SF-268 CNS
  GI50: 20.3 µM
  TGI: 48.8 µM
COLO 205 colon
  GI50: 14.4 µM
  TGI: 4.36 µM and 29.7 µM
NCI-H226 lung
  GI50: 15.2 µM
  TGI: 34.7 µM
BT-549 breast
  TGI: 66.8 µM
UO-31 renal
  GI50: 16 µM
  TGI: 7.75 µM and 35.2 µM
MOLT-4 leukemia
  GI50: 13.4 µM
  TGI: 43.9 µM
U251 CNS
  GI50: 15.1 µM
  TGI: > 100 µM
OVCAR-5 ovarian
  GI50: 23.7 µM
  TGI: 46.2 µM
MCF7 breast
  GI50: 10.1 µM
  TGI: 28 µM
K-562 leukemia
  TGI: 27.6 µM
NCI-H23 lung
  GI50: 2.86 µM
  TGI: 40.1 µM
HOP-92 NSCLC
  GI50: 18.5 µM
  TGI: 46.7 µM
RPMI-8226 leukemia
  TGI: 30.6 µM
MDA-MB-435
  TGI: 55.2 µM
CAKI-1 renal
  GI50: 17.1 µM
  TGI: 41.6 µM
HCT-15 colon
  GI50: 19.2 µM
  TGI: 80.4 µM
SW-620 colon
  GI50: 36.5 µM
  TGI: > 100 µM
SK-MEL-2 melanoma
  GI50: 17.4 µM
  TGI: 36 µM
M14 melanoma
  GI50: 17.7 µM
  TGI: 36 µM
HT29 colon
  TGI: 6.82 µM
NCI-H522 lung
  TGI: 22.8 µM
SF-539 CNS
  GI50: > 100 µM
  TGI: > 100 µM
HS 578T breast
  TGI: 6.98 µM
SNB-19 CNS
  GI50: 14.2 µM
  TGI: 38.8 µM
A498 renal
  TGI: 47.6 µM
HCC-2998 colon
  TGI: 34.5 µM
NCI/ADR-RES ovarian
  GI50: 11 µM
  TGI: 7.03 µM and 29.3 µM
PC-3 prostate
  GI50: 13.1 µM
  TGI: 33.1 µM
KM12 colon
  GI50: 24.5 µM
  TGI: 77.7 µM
786-0 renal
  GI50: 21.9 µM
  TGI: 52.1 µM
SF-295 CNS
  GI50: 0.0305 µM
  TGI: 20.1 µM
SK-MEL-28 melanoma
  GI50: 26 µM
  TGI: 62.5 µM
MDA-MB-231 breast
  GI50: 18.5 µM
  TGI: 6.4 µM and 46.9 µM
SN12C renal
  GI50: 16.2 µM
  TGI: 34 µM
UACC-257 melanoma
  GI50: 3.16 µM
  TGI: 41.9 µM
HOP-62 NSCLC
  GI50: 12.4 µM
  TGI: 26 µM
OVCAR-4 ovarian
  TGI: 39.6 µM
SNB-75 CNS
  GI50: 24.1 µM
  TGI: 60.8 µM
SK-MEL-5 melanoma
  TGI: 7.07 µM and 13.4 µM
ACHN renal
  GI50: 12.4 µM
TK-10 renal
  GI50: 22.3 µM
  TGI: > 100 µM

## COc1cc(=O)oc(/C=C/C=C/C=C/C(C)=C\C2(C)OC(C)C(C)(O)C2O)c1C (centres undefined)
OVCAR-3 ovarian
  TGI: > 100 µM
EKVX NSCLC
  TGI: > 100 µM
HCT-116 colon
  TGI: > 100 µM
NCI-H460 lung
  TGI: > 100 µM
T-47D breast
  TGI: > 100 µM
MDA-N
  TGI: > 100 µM
LOX IMVI melanoma
  TGI: > 100 µM
A549 NSCLC
  TGI: > 100 µM
OVCAR-8 ovarian
  TGI: > 100 µM
SF-268 CNS
  TGI: > 100 µM
COLO 205 colon
  TGI: > 100 µM
NCI-H226 lung
  TGI: > 100 µM
BT-549 breast
  TGI: > 100 µM
UO-31 renal
  TGI: > 100 µM
MOLT-4 leukemia
  TGI: > 100 µM
U251 CNS
  TGI: > 100 µM
OVCAR-5 ovarian
  TGI: > 100 µM
MCF7 breast
  TGI: > 100 µM
K-562 leukemia
  TGI: > 100 µM
NCI-H23 lung
  TGI: > 100 µM
HOP-92 NSCLC
  TGI: > 100 µM
RPMI-8226 leukemia
  TGI: > 100 µM
MDA-MB-435
  TGI: > 100 µM
CAKI-1 renal
  TGI: > 100 µM
HCT-15 colon
  TGI: > 100 µM
SW-620 colon
  TGI: > 100 µM
SK-MEL-2 melanoma
  TGI: > 100 µM
M14 melanoma
  TGI: > 100 µM
HT29 colon
  TGI: > 100 µM
SF-539 CNS
  TGI: > 100 µM
HS 578T breast
  TGI: > 100 µM
DU-145 prostate
  TGI: > 100 µM
IGROV1 ovarian
  TGI: > 100 µM
HL-60(TB) leukemia
  TGI: > 100 µM
SK-OV-3 ovarian
  TGI: > 100 µM
SNB-19 CNS
  TGI: > 100 µM
A498 renal
  TGI: > 100 µM
SR leukemia
  TGI: > 100 µM
NCI/ADR-RES ovarian
  TGI: > 100 µM
PC-3 prostate
  TGI: > 100 µM
KM12 colon
  TGI: > 100 µM
786-0 renal
  TGI: > 100 µM
SF-295 CNS
  TGI: > 100 µM
SK-MEL-28 melanoma
  TGI: > 100 µM
MDA-MB-231 breast
  TGI: > 100 µM
SN12C renal
  TGI: > 100 µM
UACC-257 melanoma
  TGI: > 100 µM
HOP-62 NSCLC
  TGI: > 100 µM
CCRF-CEM leukemia
  TGI: > 100 µM
SNB-75 CNS
  TGI: > 100 µM
SK-MEL-5 melanoma
  TGI: > 100 µM
ACHN renal
  TGI: > 100 µM
TK-10 renal
  TGI: > 100 µM
UACC-62 melanoma
  TGI: > 100 µM
